PMC5218480 (PLoS ONE, 2017)

System: MV-4-11 cells
Experiment: Gene expression microarray analysis (Affymetrix PrimeView) and GSEA
Format: cell-based, human
Parameters: RFU PODN (11730768_x_at) / Fold change /veh PODN (11730768_x_at) / RFU LINC00158 (11744669_a_at) / Fold change /veh LINC00158 (11744669_a_at) / RFU DUSP10 (11751237_a_at) / Fold change /veh DUSP10 (11751237_a_at) / RFU ID3 (11757404_x_at) / Fold change /veh ID3 (11757404_x_at) / RFU PLEKHG5 (11737974_s_at) / Fold change /veh PLEKHG5 (11737974_s_at) / RFU LRRC4B (11730491_at) / Fold change /veh LRRC4B (11730491_at) / RFU GIMAP4 (11747438_a_at) / Fold change /veh GIMAP4 (11747438_a_at) / RFU KRT8 (11758183_x_at) / Fold change /veh KRT8 (11758183_x_at) / RFU CNN1 (11734310_a_at) / Fold change /veh CNN1 (11734310_a_at) / RFU VPS37D (11726825_at) / Fold change /veh VPS37D (11726825_at) / RFU C10orf10 (11716522_x_at) / Fold change /veh C10orf10 (11716522_x_at) / RFU KIR2DL2 /// KIR2DL4 /// KIR2DL5A /// KIR2DL5B /// KIR2DS1 /// KIR2DS2 /// KIR2DS3 /// KIR2DS4 /// KIR3DL3 /// KIR3DL3 /// KIR3DS1 (11738374_at) / Fold change /veh KIR2DL2 /// KIR2DL4 /// KIR2DL5A /// KIR2DL5B /// KIR2DS1 /// KIR2DS2 /// KIR2DS3 /// KIR2DS4 /// KIR3DL3 /// KIR3DL3 /// KIR3DS1 (11738374_at) / RFU C1QL1 (11718748_at) / Fold change /veh C1QL1 (11718748_at) / RFU TMPRSS4 (11747572_a_at) / Fold change /veh TMPRSS4 (11747572_a_at) / RFU HAMP (11756126_x_at) / Fold change /veh HAMP (11756126_x_at) / RFU RNFT2 (11725882_a_at) / Fold change /veh RNFT2 (11725882_a_at) / RFU NR4A2 (11747474_a_at) / Fold change /veh NR4A2 (11747474_a_at) / RFU ABCC12 (11746883_a_at) / Fold change /veh ABCC12 (11746883_a_at) / RFU TMEM136 (11760407_x_at) / Fold change /veh TMEM136 (11760407_x_at) / RFU CLDN22 /// WWC2 (11732394_at) / Fold change /veh CLDN22 /// WWC2 (11732394_at) / RFU HLA-DPB1 (11760878_x_at) / Fold change /veh HLA-DPB1 (11760878_x_at) / RFU SPINT1 (11716480_a_at) / Fold change /veh SPINT1 (11716480_a_at) / RFU GAP43 (11754022_s_at) / Fold change /veh GAP43 (11754022_s_at) / RFU A4GNT (11735810_at) / Fold change /veh A4GNT (11735810_at) / RFU PRB3 (11715151_x_at) / Fold change /veh PRB3 (11715151_x_at) / RFU TUBB4B (11761932_at) / Fold change /veh TUBB4B (11761932_at) / RFU CAPN14 (11732068_a_at) / Fold change /veh CAPN14 (11732068_a_at) / RFU TMCC2 (11721928_a_at) / Fold change /veh TMCC2 (11721928_a_at) / RFU IRGQ (11745062_a_at) / Fold change /veh IRGQ (11745062_a_at) / RFU FAM174B (11720279_a_at) / Fold change /veh FAM174B (11720279_a_at) / RFU TMPRSS4 (11748680_a_at) / Fold change /veh TMPRSS4 (11748680_a_at) / RFU FAM212B (11763350_a_at) / Fold change /veh FAM212B (11763350_a_at) / RFU PLEKHG5 (11743358_a_at) / Fold change /veh PLEKHG5 (11743358_a_at) / RFU ZSCAN30 (11745921_a_at) / Fold change /veh ZSCAN30 (11745921_a_at) / RFU CMKLR1 (11741424_a_at) / Fold change /veh CMKLR1 (11741424_a_at) / RFU LOC101060620 /// MAPK8IP1 (11723275_at) / Fold change /veh LOC101060620 /// MAPK8IP1 (11723275_at) / RFU SPTSSB (11747773_x_at) / Fold change /veh SPTSSB (11747773_x_at) / RFU PRSS12 (11739890_at) / Fold change /veh PRSS12 (11739890_at) / RFU BIN1 (11741810_x_at) / Fold change /veh BIN1 (11741810_x_at) / RFU WNT11 (11732464_a_at) / Fold change /veh WNT11 (11732464_a_at) / RFU C10orf10 (11716521_a_at) / Fold change /veh C10orf10 (11716521_a_at) / RFU C5orf56 (11738089_at) / Fold change /veh C5orf56 (11738089_at) / RFU CYB561 (11721691_x_at) / Fold change /veh CYB561 (11721691_x_at) / RFU ANKRD19P (11752326_a_at) / Fold change /veh ANKRD19P (11752326_a_at) / RFU OR2T12 /// OR2T33 /// OR2T8 (11738714_s_at) / Fold change /veh OR2T12 /// OR2T33 /// OR2T8 (11738714_s_at) / RFU VCAN (11748164_a_at) / Fold change /veh VCAN (11748164_a_at) / RFU JSRP1 (11732532_at) / Fold change /veh JSRP1 (11732532_at) / RFU KRTAP10-11 (11738290_x_at) / Fold change /veh KRTAP10-11 (11738290_x_at) / RFU MYO3A (11730013_a_at) / Fold change /veh MYO3A (11730013_a_at) / RFU EBF3 (11725865_a_at) / Fold change /veh EBF3 (11725865_a_at) / RFU CAMK2N1 (11719241_x_at) / Fold change /veh CAMK2N1 (11719241_x_at) / RFU C5orf56 (11738088_a_at) / Fold change /veh C5orf56 (11738088_a_at) / RFU OLFML3 (11715873_a_at) / Fold change /veh OLFML3 (11715873_a_at) / RFU LOC100653217 /// NTM (11731650_a_at) / Fold change /veh LOC100653217 /// NTM (11731650_a_at) / RFU MAPK11 (11762145_a_at) / Fold change /veh MAPK11 (11762145_a_at) / RFU FIZ1 (11724087_x_at) / Fold change /veh FIZ1 (11724087_x_at) / RFU OASL (11726364_x_at) / Fold change /veh OASL (11726364_x_at) / RFU SOX15 (11748057_x_at) / Fold change /veh SOX15 (11748057_x_at) / RFU CD79A (11719716_a_at) / Fold change /veh CD79A (11719716_a_at) / RFU HIST1H1D (11736915_at) / Fold change /veh HIST1H1D (11736915_at) / RFU CASKIN2 (11723855_a_at) / Fold change /veh CASKIN2 (11723855_a_at) / RFU LOC730098 (11760151_x_at) / Fold change /veh LOC730098 (11760151_x_at) / RFU OR4N2 (11742367_at) / Fold change /veh OR4N2 (11742367_at) / RFU PRRT2 (11749266_a_at) / Fold change /veh PRRT2 (11749266_a_at) / RFU SNX32 (11753110_a_at) / Fold change /veh SNX32 (11753110_a_at) / RFU CDHR5 (11726645_a_at) / Fold change /veh CDHR5 (11726645_a_at) / RFU RCAN1 (11760418_a_at) / Fold change /veh RCAN1 (11760418_a_at) / RFU FAM167A (11723789_a_at) / Fold change /veh FAM167A (11723789_a_at) / RFU FAM26E (11764081_at) / Fold change /veh FAM26E (11764081_at) / RFU ISYNA1 (11749810_s_at) / Fold change /veh ISYNA1 (11749810_s_at) / RFU ACY1 (11761880_at) / Fold change /veh ACY1 (11761880_at) / RFU 11764098_at / Fold change /veh 11764098_at / RFU SAMD14 (11745864_x_at) / Fold change /veh SAMD14 (11745864_x_at) / RFU NPB (11741838_a_at) / Fold change /veh NPB (11741838_a_at) / RFU TMPRSS6 (11731388_a_at) / Fold change /veh TMPRSS6 (11731388_a_at) / RFU KRTAP10-2 (11738614_at) / Fold change /veh KRTAP10-2 (11738614_at) / RFU ARHGAP8 /// PRR5-ARHGAP8 (11727945_x_at) / Fold change /veh ARHGAP8 /// PRR5-ARHGAP8 (11727945_x_at) / RFU KRTAP5-7 /// NADSYN1 (11734609_at) / Fold change /veh KRTAP5-7 /// NADSYN1 (11734609_at) / RFU RASL12 (11751679_a_at) / Fold change /veh RASL12 (11751679_a_at) / RFU CDKN2B (11736163_a_at) / Fold change /veh CDKN2B (11736163_a_at) / RFU PRF1 (11729649_at) / Fold change /veh PRF1 (11729649_at) / RFU, ZNF638 /// ZNF638-IT1 / Fold change vs veh, ZNF638 /// ZNF638-IT1 / RFU, PANK3 / Fold change vs veh, PANK3 / RFU, SH3YL1 / Fold change vs veh, SH3YL1 / RFU, ZEB2 / Fold change vs veh, ZEB2 / RFU, NRIP1 / Fold change vs veh, NRIP1 / RFU, PTTG1IP / Fold change vs veh, PTTG1IP / RFU, CAPN2 / Fold change vs veh, CAPN2 / RFU, MED14 / Fold change vs veh, MED14 / RFU, SNORA58 / Fold change vs veh, SNORA58 / RFU, C1orf63 / Fold change vs veh, C1orf63 / RFU, LRRFIP1 / Fold change vs veh, LRRFIP1 / RFU, NDUFAF7 / Fold change vs veh, NDUFAF7 / RFU, SLC12A2 / Fold change vs veh, SLC12A2 / RFU, IBTK / Fold change vs veh, IBTK / RFU, ESF1 / Fold change vs veh, ESF1 / Fold change vs veh, TMEM50B / RFU, TAOK1 / Fold change vs veh, TAOK1 / RFU, ACBD3 / Fold change vs veh, ACBD3 / RFU, TMA16 / Fold change vs veh, TMA16 / RFU, RWDD3 / Fold change vs veh, RWDD3 / RFU, BCAT1 / Fold change vs veh, BCAT1 / RFU, EDEM3 / Fold change vs veh, EDEM3 / RFU, TMEM33 / Fold change vs veh, TMEM33 / RFU, WDR75 / Fold change vs veh, WDR75 / RFU, AHCTF1 / Fold change vs veh, AHCTF1 / RFU, TFRC / Fold change vs veh, TFRC / RFU, ZDHHC17 / Fold change vs veh, ZDHHC17 / RFU, NOM1 / Fold change vs veh, NOM1 / RFU, ARL8B / Fold change vs veh, ARL8B / RFU, ZBTB11 / Fold change vs veh, ZBTB11 / RFU, TAMM41 / Fold change vs veh, TAMM41 / RFU, KIAA1704 /// LOC100996395 / Fold change vs veh, KIAA1704 /// LOC100996395 / RFU, ING1 / Fold change vs veh, ING1 / RFU, TRMT61B / Fold change vs veh, TRMT61B / RFU, FUBP3 / Fold change vs veh, FUBP3 / RFU, TP53 / Fold change vs veh, TP53 / RFU, TNKS2 / Fold change vs veh, TNKS2 / RFU, ZFP14 / Fold change vs veh, ZFP14 / RFU, ACTR2 / Fold change vs veh, ACTR2 / RFU, PPP3R1 / Fold change vs veh, PPP3R1 / RFU, PIK3R1 / Fold change vs veh, PIK3R1 / RFU, HNRNPA1 / Fold change vs veh, HNRNPA1 / RFU, RNF170 / Fold change vs veh, RNF170 / RFU, ZNF28 / Fold change vs veh, ZNF28 / RFU, RNGTT / Fold change vs veh, RNGTT / RFU, OGT / Fold change vs veh, OGT / RFU, BRD1 / Fold change vs veh, BRD1 / RFU, MARS / Fold change vs veh, MARS / RFU, ZNF655 / Fold change vs veh, ZNF655 / RFU, FAHD1 / Fold change vs veh, FAHD1 / RFU, BDP1 / Fold change vs veh, BDP1 / RFU, LRRCC1 / Fold change vs veh, LRRCC1 / RFU, ARID1A / Fold change vs veh, ARID1A / RFU, ZNF146 / Fold change vs veh, ZNF146 / RFU, ZNF330 / Fold change vs veh, ZNF330 / RFU, GPN3 / Fold change vs veh, GPN3 / RFU, C9orf123 / Fold change vs veh, C9orf123 / RFU, N4BP2L2 / Fold change vs veh, N4BP2L2 / RFU, ARFIP1 / Fold change vs veh, ARFIP1 / RFU, FAM179B / Fold change vs veh, FAM179B / RFU, BCL10 / Fold change vs veh, BCL10 / RFU, UHRF1BP1L / Fold change vs veh, UHRF1BP1L / RFU, BET1 / Fold change vs veh, BET1 / RFU, CNOT2 / Fold change vs veh, CNOT2 / RFU, ZNF268 / Fold change vs veh, ZNF268 / Fold change vs veh, ZNF507 / RFU, DGCR2 / Fold change vs veh, DGCR2 / RFU, WDSUB1 / Fold change vs veh, WDSUB1 / Fold change vs veh, HSP90B1 /// MIR3652 / RFU, ADSS / Fold change vs veh, ADSS / RFU, GK / Fold change vs veh, GK / RFU, ZNF148 / Fold change vs veh, ZNF148 / RFU, TAF9 / Fold change vs veh, TAF9 / RFU, SLC1A5 / Fold change vs veh, SLC1A5 / RFU, SLMO2 / Fold change vs veh, SLMO2 / RFU, ABCC4 / Fold change vs veh, ABCC4 / RFU, LOC101060439 /// RAP1B / Fold change vs veh, LOC101060439 /// RAP1B / RFU, RFX7 / Fold change vs veh, RFX7 / RFU, GTPBP10 / Fold change vs veh, GTPBP10 / RFU, CNEP1R1 / Fold change vs veh, CNEP1R1 / RFU, BIVM-ERCC5 /// ERCC5 / Fold change vs veh, BIVM-ERCC5 /// ERCC5 / RFU, ILF3 / Fold change vs veh, ILF3 / RFU 11762660_at / Fold change /veh 11762660_at / RFU VCAN (11757783_s_at) / Fold change /veh VCAN (11757783_s_at) / RFU DDX43 (11728927_at) / Fold change /veh DDX43 (11728927_at) / RFU KRT8 (11758188_x_at) / Fold change /veh KRT8 (11758188_x_at) / RFU NKD1 (11759106_at) / Fold change /veh NKD1 (11759106_at) / RFU SRD5A1 (11742802_a_at) / Fold change /veh SRD5A1 (11742802_a_at) / RFU TPSAB1 /// TPSB2 (11721975_s_at) / Fold change /veh TPSAB1 /// TPSB2 (11721975_s_at) / RFU GSTM3 (11746129_a_at) / Fold change /veh GSTM3 (11746129_a_at) / RFU IL23R (11737362_x_at) / Fold change /veh IL23R (11737362_x_at) / RFU TMEM51 (11727254_a_at) / Fold change /veh TMEM51 (11727254_a_at) / RFU PIWIL2 (11732686_x_at) / Fold change /veh PIWIL2 (11732686_x_at) / RFU ORM1 (11744905_x_at) / Fold change /veh ORM1 (11744905_x_at) / RFU CCDC152 (11743942_at) / Fold change /veh CCDC152 (11743942_at) / RFU ECM1 (11717891_a_at) / Fold change /veh ECM1 (11717891_a_at) / RFU IL23R (11748794_a_at) / Fold change /veh IL23R (11748794_a_at) / RFU TNFAIP8L3 (11732012_x_at) / Fold change /veh TNFAIP8L3 (11732012_x_at) / RFU MBOAT4 (11741988_at) / Fold change /veh MBOAT4 (11741988_at) / RFU 11764193_at / Fold change /veh 11764193_at / RFU TMEM53 (11763286_at) / Fold change /veh TMEM53 (11763286_at) / RFU MAGEB2 (11727129_at) / Fold change /veh MAGEB2 (11727129_at) / RFU TMEM200A (11744735_a_at) / Fold change /veh TMEM200A (11744735_a_at) / RFU CCDC152 (11751479_a_at) / Fold change /veh CCDC152 (11751479_a_at) / RFU FAM211A (11726209_a_at) / Fold change /veh FAM211A (11726209_a_at) / RFU RGS16 (11746705_a_at) / Fold change /veh RGS16 (11746705_a_at) / RFU VCAN (11755009_s_at) / Fold change /veh VCAN (11755009_s_at) / RFU RHOB (11743442_s_at) / Fold change /veh RHOB (11743442_s_at) / RFU RGS16 (11720943_a_at) / Fold change /veh RGS16 (11720943_a_at) / RFU RGS16 (11720944_at) / Fold change /veh RGS16 (11720944_at) / RFU, VPS4B / Fold change vs veh, VPS4B / RFU, CREB1 / Fold change vs veh, CREB1 / RFU, DNAJC13 / Fold change vs veh, DNAJC13 / RFU, GNAQ / Fold change vs veh, GNAQ / RFU, CDK5R1 / Fold change vs veh, CDK5R1 / RFU, ZRANB3 / Fold change vs veh, ZRANB3 / RFU, CUL4A / Fold change vs veh, CUL4A / RFU, CCNY / Fold change vs veh, CCNY / RFU, UFL1 / Fold change vs veh, UFL1 / RFU, COG3 / Fold change vs veh, COG3 / RFU, DIAPH2 / Fold change vs veh, DIAPH2 / RFU, SKA2 / Fold change vs veh, SKA2 / RFU, AFF3 / Fold change vs veh, AFF3 / RFU, LMF1 / Fold change vs veh, LMF1 / RFU, IPO11 / Fold change vs veh, IPO11 / RFU, DFFB / Fold change vs veh, DFFB / RFU, FOXP1 / Fold change vs veh, FOXP1 / RFU, CARD8 / Fold change vs veh, CARD8 / RFU, STRN3 / Fold change vs veh, STRN3 / RFU, ADK / Fold change vs veh, ADK / RFU, RASSF2 / Fold change vs veh, RASSF2 / RFU, WIPF1 / Fold change vs veh, WIPF1 / RFU, LARP1B / Fold change vs veh, LARP1B / RFU, RASA1 / Fold change vs veh, RASA1 / RFU, RB1 / Fold change vs veh, RB1 / RFU, PPFIA1 / Fold change vs veh, PPFIA1 / RFU, MAT2A / Fold change vs veh, MAT2A / RFU, CCT5 / Fold change vs veh, CCT5 / RFU, WDR92 / Fold change vs veh, WDR92 / RFU, CUX1 / Fold change vs veh, CUX1 / RFU, TTC7A / Fold change vs veh, TTC7A / RFU, TMEM135 / Fold change vs veh, TMEM135 / RFU, DEPTOR / Fold change vs veh, DEPTOR / RFU, CPM / Fold change vs veh, CPM / RFU, DNAJB6 / Fold change vs veh, DNAJB6 / RFU, CACNA2D3 / Fold change vs veh, CACNA2D3 / RFU, DTX4 / Fold change vs veh, DTX4 / RFU, TFCP2 / Fold change vs veh, TFCP2 / RFU, GMCL1 /// GMCL1P1 / Fold change vs veh, GMCL1 /// GMCL1P1 / RFU, AEBP2 / Fold change vs veh, AEBP2 / RFU, SNHG1 /// SNORD22 /// SNORD25 /// SNORD26 /// SNORD27 /// SNORD28 /// SNORD29 /// SNORD31 / Fold change vs veh, SNHG1 /// SNORD22 /// SNORD25 /// SNORD26 /// SNORD27 /// SNORD28 /// SNORD29 /// SNORD31 / Fold change (Aza/veh), C12orf56 (ProbeSet 11735607_a_at) / Fold change (ACY-1035/veh), C12orf56 (ProbeSet 11735607_a_at) / Fold change (Aza/veh), FGFR1OP (ProbeSet 11751329_s_at) / Fold change (ACY-1035/veh), FGFR1OP (ProbeSet 11751329_s_at) / Fold change (Aza/veh), VPS36 (ProbeSet 11739960_a_at) / Fold change (ACY-1035/veh), VPS36 (ProbeSet 11739960_a_at) / RFU SYPL1 (11715823_x_at) / Fold change /veh SYPL1 (11715823_x_at) / RFU IGFBP7 (11715501_s_at) / Fold change /veh IGFBP7 (11715501_s_at) / RFU REEP3 (11722064_at) / Fold change /veh REEP3 (11722064_at) / RFU IGLL1 (11728026_x_at) / Fold change /veh IGLL1 (11728026_x_at): dose or concentration left out as unconfirmed
Settings: MV-4-11 cells, 48 hours

SMILES: Nc1ccc(-c2cccs2)cc1NC(=O)c1ccc2c(c1)cc(C1CC1)n2CCN1CCOCC1 [ACY-1035]
- Fold change /veh VCAN (11757783_s_at): 1.01
